Measured values published in ChEMBL document CHEMBL1128763, “Synthesis of 2-substituted d-tryptophan-containing peptide derivatives with endothelin receptor antagonist activity” (Bioorg Med Chem Lett, 1995).

What was measured:
Endothelin-1 receptor [1] = target: T1, Endothelin-1 receptor (Homo sapiens, UniProt P25101); assay: Functional inhibition of ET-1 induced [Ca2+] increase in human neuroblastoma-derived SK-N-MC cells, which express Endothelin A receptor; format: cell-based
T1 sequence (P25101 whole entry): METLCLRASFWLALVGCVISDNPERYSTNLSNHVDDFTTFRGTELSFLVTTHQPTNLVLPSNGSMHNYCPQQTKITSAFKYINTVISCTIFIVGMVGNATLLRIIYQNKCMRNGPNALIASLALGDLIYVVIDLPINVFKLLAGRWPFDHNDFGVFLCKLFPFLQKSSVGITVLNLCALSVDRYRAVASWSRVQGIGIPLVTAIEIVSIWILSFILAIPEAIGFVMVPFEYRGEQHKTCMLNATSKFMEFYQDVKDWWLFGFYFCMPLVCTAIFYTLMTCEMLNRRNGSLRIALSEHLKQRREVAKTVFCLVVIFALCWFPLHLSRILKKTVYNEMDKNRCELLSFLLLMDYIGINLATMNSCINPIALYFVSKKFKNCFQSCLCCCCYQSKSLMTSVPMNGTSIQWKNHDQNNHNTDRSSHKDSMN

[2] = target: T2, Endothelin receptor type B (Homo sapiens, UniProt P24530); assay: Functional inhibition of ET-1 induced [Ca2+] increase in human Girardi heart (hGH) cells, which express Endothelin B receptor
T2 sequence (P24530 whole entry): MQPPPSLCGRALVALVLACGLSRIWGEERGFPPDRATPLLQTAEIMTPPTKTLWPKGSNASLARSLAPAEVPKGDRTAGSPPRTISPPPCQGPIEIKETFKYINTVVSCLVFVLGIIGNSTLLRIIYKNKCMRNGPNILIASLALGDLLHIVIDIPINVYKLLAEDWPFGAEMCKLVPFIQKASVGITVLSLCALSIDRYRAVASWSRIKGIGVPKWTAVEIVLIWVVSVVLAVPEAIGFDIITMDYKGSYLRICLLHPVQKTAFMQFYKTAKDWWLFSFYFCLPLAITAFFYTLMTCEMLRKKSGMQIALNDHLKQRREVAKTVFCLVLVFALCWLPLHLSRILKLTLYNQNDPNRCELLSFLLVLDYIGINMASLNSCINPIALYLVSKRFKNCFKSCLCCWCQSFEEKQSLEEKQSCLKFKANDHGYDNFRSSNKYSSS

Endothelin-1 receptor [3] = target: T3, Endothelin-1 receptor (Sus scrofa, UniProt Q29010); assay: Inhibitory activity against 125 I-labeled ET-1 binding to Endothelin A receptor in porcine aortic smooth muscle membranes.
T3 sequence (Q29010 whole entry): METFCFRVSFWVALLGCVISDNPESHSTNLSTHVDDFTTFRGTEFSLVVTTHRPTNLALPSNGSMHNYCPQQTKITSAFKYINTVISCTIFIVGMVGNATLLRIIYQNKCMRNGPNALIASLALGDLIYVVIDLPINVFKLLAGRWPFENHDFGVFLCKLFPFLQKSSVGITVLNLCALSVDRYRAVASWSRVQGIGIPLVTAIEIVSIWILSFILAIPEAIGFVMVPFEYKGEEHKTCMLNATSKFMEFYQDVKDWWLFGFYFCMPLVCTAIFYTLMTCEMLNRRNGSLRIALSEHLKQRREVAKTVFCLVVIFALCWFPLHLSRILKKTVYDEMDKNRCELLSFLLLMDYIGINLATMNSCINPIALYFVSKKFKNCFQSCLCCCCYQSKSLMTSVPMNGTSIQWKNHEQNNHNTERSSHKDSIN

[4] = target: T4, Endothelin receptor type B (Sus scrofa, UniProt P35463); assay: Inhibitory activity against 125 I-labeled ET-1 binding to Endothelin B receptor in porcine cerebellum membranes; format: cell membranes, Membrane
T4 sequence (P35463 whole entry): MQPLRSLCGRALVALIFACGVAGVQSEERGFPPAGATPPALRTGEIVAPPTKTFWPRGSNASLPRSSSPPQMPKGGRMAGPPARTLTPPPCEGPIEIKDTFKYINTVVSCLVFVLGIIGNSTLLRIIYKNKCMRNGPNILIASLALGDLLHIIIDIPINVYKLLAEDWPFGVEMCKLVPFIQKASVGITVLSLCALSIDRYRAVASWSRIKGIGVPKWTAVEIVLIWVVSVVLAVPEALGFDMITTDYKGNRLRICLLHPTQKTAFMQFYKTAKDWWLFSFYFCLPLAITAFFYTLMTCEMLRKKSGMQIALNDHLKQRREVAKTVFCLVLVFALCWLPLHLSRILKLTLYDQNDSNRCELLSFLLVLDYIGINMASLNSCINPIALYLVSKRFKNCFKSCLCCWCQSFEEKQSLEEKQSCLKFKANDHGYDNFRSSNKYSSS

Row | Compound | IC50 (Endothelin-1 receptor [1]) | IC50 [2] | IC50 (Endothelin-1 receptor [3]) | IC50 [4]
1 | CCCC[C@@H](NC(=O)[C@@H](Cc1c(Br)[nH]c2ccccc12)NC(=O)[C@@H](NC(=O)N1[C@H](C)CCC[C@@H]1C)C1CC1)C(=O)O | 16 nM | 0.8 nM |  | 
2 | CCCC[C@@H](NC(=O)[C@@H](Cc1cn(C(=O)OC)c2ccccc12)NC(=O)[C@H](CC(C)(C)C)NC(=O)N1[C@H](C)CCC[C@@H]1C)C(=O)O |  |  | 280 nM | 1.2 nM
3 | CCCC[C@@H](NC(=O)[C@@H](Cc1c(C#N)[nH]c2ccccc12)NC(=O)[C@@H](NC(=O)N1[C@H](C)CCC[C@@H]1C)C(C)C)C(=O)O | 6100 nM | 4 nM |  | 
4 | CC(C)C[C@@H]1NC(=O)[C@@H](C(C)C)NC(=O)C2CCCN2C(=O)[C@@H](CC(=O)O)NC(=O)[C@@H](Cc2c[nH]c3ccccc23)NC1=O (single isomer, unassigned) [BQ-123] |  |  | 22 nM | 
